Like-named read-outs stand apart in the source and are kept apart here.
Assay: Ocular tissue and plasma pharmacokinetics, 15 mg/kg single and BID oral, Dutch Belted rabbits (Example 3/5)
Format: in vivo
Experimental: Study design including group designation and dose levels are outlined in Table 4. […] Fifteen Dutch Belted and 5 New Zealand White rabbits were used as un-dosed controls. […] The dose volume was 5 mL/kg/dose for all groups. Safety was assessed with toxicological and ophthalmic examinations including slit lamp biomicroscopy, indirect ophthalmoscopy, rebound tonometry, and ultrasonic corneal pachymetry.
Analyst® software (Version 1.6.2) was used to capture the LC-MS/MS data and integrate the peak areas. Calibration standards and QCs were prepared in a blank solution of 75%:25% acetonitrile:water (v:v), ranging from 10 ng/mL to 10,000 ng/mL. Matrix matched standard and QC samples were prepared by mixing 2 μL of standard or QC sample above with 18 μL of appropriate ocular tissue or plasma. The final calibration standards ranged from 1 ng/mL to 1000 ng/mL. All plasma, retina, choroid-RPE, optic nerve, and vitreous humor samples were analyzed in a single run. Iris-ciliary body samples were analyzed in two runs due to a need for sample dilution. […] Dilution QCs were prepared at 5000 ng/mL where appropriate. Two sets of standards were used to bracket the analytical run at the beginning and end of the run. Three sets of QCs were included the analytical runs. All concentrations in ocular matrices are reported as ng/g based on the assumed density of 1 g/mL.
1, 6, 24, 96, 168, and 240 hours post-dose on Day 15, with the eyes collected at the same time as blood sampling. A single blood sample was taken from Groups 4 and 5 at sacrifice. Plasma, vitreous humor (VH), retina, choroid-retina pigmented epithelium (Choroid-RPE), optic nerve (ON), and iris-ciliary body (I-CB) were analyzed by LC-MS/MS to quantify test article concentrations. The lower limit of quantitation (LLOQ) in plasma and vitreous humor was 1.0 ng/mL. The LLOQ was 6.0 ng/g in retina, Choroid-RPE, and I-CB and the optic nerve LLOQ was 15 ng/g, assuming tissue density of 1 g/mL where relevant.
Study design including group designation and dose levels are outlined in Table 18.

[1] = Dutch Belted, rabbit, iris-ciliary body, po, 15 mg/kg, Iris-Ciliary Body, DB rabbit, 15 mg/kg BID, Day 15
[2] = Dutch Belted, rabbit, iris-ciliary body, po, 15 mg/kg, Iris-Ciliary Body, DB rabbit, 15 mg/kg single dose, Day 1
[3] = Dutch Belted, rabbit, vitreous humor, po, 15 mg/kg, Vitreous Humor, DB rabbit, 15 mg/kg BID, Day 15
[4] = Dutch Belted, rabbit, vitreous humor, po, 15 mg/kg, Vitreous Humor, DB rabbit, 15 mg/kg single dose, Day 1
[5] = plasma, DB rabbit, 15 mg/kg BID, Day 15
[6] = plasma, DB rabbit, 15 mg/kg single dose, Day 1
[7] = retina, DB rabbit, 15 mg/kg BID, Day 15
[8] = retina, DB rabbit, 15 mg/kg single dose, Day 1

CC(=O)c1nn(CC(=O)N2C[C@H](F)C[C@H]2C(=O)Nc2cccc(Br)n2)c2ccc(-c3cnc(C)nc3)cc12 [Compound 1, (2S,4R)-1-(2-(3-Acetyl-5-(2-methylpyrimidin-5-yl)-1H-indazol-1-yl)acetyl)-N-(6-bromopyridin-2-yl)-4-fluoropyrrolidine-2-carboxamide]
concentration at 0 h (Dutch Belted, rabbit, iris-ciliary body, po, 15 mg/kg, DB rabbit, 15 mg/kg BID oral, Day 15, 0 h, read-out: Mean Iris-Ciliary Body concentration): 2900 ng/g
concentration at 1 h (Dutch Belted, rabbit, iris-ciliary body, po, 15 mg/kg, DB rabbit, 15 mg/kg BID oral, Day 15, 1 h, read-out: Mean Iris-Ciliary Body concentration): 4920 ng/g
concentration at 6 h (Dutch Belted, rabbit, iris-ciliary body, po, 15 mg/kg, DB rabbit, 15 mg/kg BID oral, Day 15, 6 h, read-out: Mean Iris-Ciliary Body concentration): 3510 ng/g
concentration at 24 h (Dutch Belted, rabbit, iris-ciliary body, po, 15 mg/kg, DB rabbit, 15 mg/kg BID oral, Day 15, 24 h, read-out: Mean Iris-Ciliary Body concentration): 1640 ng/g
concentration at 96 h (Dutch Belted, rabbit, iris-ciliary body, po, 15 mg/kg, DB rabbit, 15 mg/kg BID oral, Day 15, 96 h, read-out: Mean Iris-Ciliary Body concentration): 1010 ng/g
concentration at 168 h (Dutch Belted, rabbit, iris-ciliary body, po, 15 mg/kg, DB rabbit, 15 mg/kg BID oral, Day 15, 168 h, read-out: Mean Iris-Ciliary Body concentration): 612 ng/g
concentration at 240 h (Dutch Belted, rabbit, iris-ciliary body, po, 15 mg/kg, DB rabbit, 15 mg/kg BID oral, Day 15, 240 h, read-out: Mean Iris-Ciliary Body concentration): 408 ng/g
concentration at 1 h (Dutch Belted, rabbit, iris-ciliary body, po, 15 mg/kg, DB rabbit, 15 mg/kg single oral dose, Day 1, 1 h, read-out: Mean Iris-Ciliary Body concentration): 1010 ng/g
concentration at 6 h (Dutch Belted, rabbit, iris-ciliary body, po, 15 mg/kg, DB rabbit, 15 mg/kg single oral dose, Day 1, 6 h, read-out: Mean Iris-Ciliary Body concentration): 528 ng/g
concentration at 24 h (Dutch Belted, rabbit, iris-ciliary body, po, 15 mg/kg, DB rabbit, 15 mg/kg single oral dose, Day 1, 24 h, read-out: Mean Iris-Ciliary Body concentration): 300 ng/g
concentration at 96 h (Dutch Belted, rabbit, iris-ciliary body, po, 15 mg/kg, DB rabbit, 15 mg/kg single oral dose, Day 1, 96 h, read-out: Mean Iris-Ciliary Body concentration): 57.9 ng/g
concentration at 168 h (Dutch Belted, rabbit, iris-ciliary body, po, 15 mg/kg, DB rabbit, 15 mg/kg single oral dose, Day 1, 168 h, read-out: Mean Iris-Ciliary Body concentration): 27.1 ng/g
concentration at 240 h (Dutch Belted, rabbit, iris-ciliary body, po, 15 mg/kg, DB rabbit, 15 mg/kg single oral dose, Day 1, 240 h, read-out: Mean Iris-Ciliary Body concentration): 33.6 ng/g
MRT inf [1]: 81.5 h
MRT last [1]: 76.2 h
half-life [1]: 107 h
Cmax (Dutch Belted, rabbit, iris-ciliary body, po, 15 mg/kg, Iris-Ciliary Body, DB rabbit, 15 mg/kg BID, Day 15, read-out: Cmax): 4920 ng/g
MRT inf [2]: 69 h
MRT last [2]: 46.2 h
half-life [2]: 56 h
Cmax (Dutch Belted, rabbit, iris-ciliary body, po, 15 mg/kg, Iris-Ciliary Body, DB rabbit, 15 mg/kg single dose, Day 1, read-out: Cmax): 1010 ng/g
concentration at 0 h (Dutch Belted, rabbit, plasma, po, 15 mg/kg, DB rabbit, 15 mg/kg BID oral, Day 15, 0 h, read-out: Mean plasma concentration): 55.2 ng/mL
concentration at 1 h (Dutch Belted, rabbit, plasma, po, 15 mg/kg, DB rabbit, 15 mg/kg BID oral, Day 15, 1 h, read-out: Mean plasma concentration): 845 ng/mL
concentration at 6 h (Dutch Belted, rabbit, plasma, po, 15 mg/kg, DB rabbit, 15 mg/kg BID oral, Day 15, 6 h, read-out: Mean plasma concentration): 92.2 ng/mL
concentration at 24 h (Dutch Belted, rabbit, plasma, po, 15 mg/kg, DB rabbit, 15 mg/kg BID oral, Day 15, 24 h, read-out: Mean plasma concentration): 5.6 ng/mL
concentration at 96 h (Dutch Belted, rabbit, plasma, po, 15 mg/kg, DB rabbit, 15 mg/kg BID oral, Day 15, 96 h, read-out: Mean plasma concentration): 3.19 ng/mL
concentration at 1 h (Dutch Belted, rabbit, plasma, po, 15 mg/kg, DB rabbit, 15 mg/kg single oral dose, Day 1, 1 h, read-out: Mean plasma concentration): 318 ng/mL
concentration at 6 h (Dutch Belted, rabbit, plasma, po, 15 mg/kg, DB rabbit, 15 mg/kg single oral dose, Day 1, 6 h, read-out: Mean plasma concentration): 33.7 ng/mL
concentration at 24 h (Dutch Belted, rabbit, plasma, po, 15 mg/kg, DB rabbit, 15 mg/kg single oral dose, Day 1, 24 h, read-out: Mean plasma concentration): 25.4 ng/mL
concentration at 1 h (Dutch Belted, rabbit, retina, oral, 15 mg/kg, DB rabbits, Day 1, 15 mg/kg single dose, 1 hr, read-out: Mean Retina Concentration): 145 ng/g
concentration at 6 h (Dutch Belted, rabbit, retina, oral, 15 mg/kg, DB rabbits, Day 1, 15 mg/kg single dose, 6 hr, read-out: Mean Retina Concentration): 29.6 ng/g
concentration at 24 h (Dutch Belted, rabbit, retina, oral, 15 mg/kg, DB rabbits, Day 1, 15 mg/kg single dose, 24 hr, read-out: Mean Retina Concentration): 24.7 ng/g
concentration at 0 h (Dutch Belted, rabbit, retina, oral, 15 mg/kg, DB rabbits, Day 15, 15 mg/kg BID, 0 hr, read-out: Mean Retina Concentration): 114 ng/g
concentration at 1 h (Dutch Belted, rabbit, retina, oral, 15 mg/kg, DB rabbits, Day 15, 15 mg/kg BID, 1 hr, read-out: Mean Retina Concentration): 576 ng/g
concentration at 6 h (Dutch Belted, rabbit, retina, oral, 15 mg/kg, DB rabbits, Day 15, 15 mg/kg BID, 6 hr, read-out: Mean Retina Concentration): 237 ng/g
concentration at 24 h (Dutch Belted, rabbit, retina, oral, 15 mg/kg, DB rabbits, Day 15, 15 mg/kg BID, 24 hr, read-out: Mean Retina Concentration): 74.3 ng/g
concentration at 96 h (Dutch Belted, rabbit, retina, oral, 15 mg/kg, DB rabbits, Day 15, 15 mg/kg BID, 96 hr, read-out: Mean Retina Concentration): 28.1 ng/g
concentration at 168 h (Dutch Belted, rabbit, retina, oral, 15 mg/kg, DB rabbits, Day 15, 15 mg/kg BID, 168 hr, read-out: Mean Retina Concentration): 36.5 ng/g
concentration at 240 h (Dutch Belted, rabbit, retina, oral, 15 mg/kg, DB rabbits, Day 15, 15 mg/kg BID, 240 hr, read-out: Mean Retina Concentration): 25.3 ng/g
concentration at 0 h (Dutch Belted, rabbit, retina, po, 15 mg/kg, DB rabbit, 15 mg/kg BID oral, Day 15, 0 h, read-out: Mean retina concentration): 114 ng/g
concentration at 1 h (Dutch Belted, rabbit, retina, po, 15 mg/kg, DB rabbit, 15 mg/kg BID oral, Day 15, 1 h, read-out: Mean retina concentration): 576 ng/g
concentration at 6 h (Dutch Belted, rabbit, retina, po, 15 mg/kg, DB rabbit, 15 mg/kg BID oral, Day 15, 6 h, read-out: Mean retina concentration): 237 ng/g
concentration at 24 h (Dutch Belted, rabbit, retina, po, 15 mg/kg, DB rabbit, 15 mg/kg BID oral, Day 15, 24 h, read-out: Mean retina concentration): 74.3 ng/g
concentration at 96 h (Dutch Belted, rabbit, retina, po, 15 mg/kg, DB rabbit, 15 mg/kg BID oral, Day 15, 96 h, read-out: Mean retina concentration): 28.1 ng/g
concentration at 168 h (Dutch Belted, rabbit, retina, po, 15 mg/kg, DB rabbit, 15 mg/kg BID oral, Day 15, 168 h, read-out: Mean retina concentration): 36.5 ng/g
concentration at 240 h (Dutch Belted, rabbit, retina, po, 15 mg/kg, DB rabbit, 15 mg/kg BID oral, Day 15, 240 h, read-out: Mean retina concentration): 25.3 ng/g
concentration at 1 h (Dutch Belted, rabbit, retina, po, 15 mg/kg, DB rabbit, 15 mg/kg single oral dose, Day 1, 1 h, read-out: Mean retina concentration): 145 ng/g
concentration at 6 h (Dutch Belted, rabbit, retina, po, 15 mg/kg, DB rabbit, 15 mg/kg single oral dose, Day 1, 6 h, read-out: Mean retina concentration): 29.6 ng/g
concentration at 24 h (Dutch Belted, rabbit, retina, po, 15 mg/kg, DB rabbit, 15 mg/kg single oral dose, Day 1, 24 h, read-out: Mean retina concentration): 24.7 ng/g
MRT last (Dutch Belted, rabbit, retina, po, 15 mg/kg, retina, DB rabbit, 15 mg/kg BID, Day 15): 71 h
concentration at 0 h (Dutch Belted, rabbit, vitreous humor, po, 15 mg/kg, DB rabbit, 15 mg/kg BID oral, Day 15, 0 h, read-out: Mean Vitreous Humor concentration): 3.27 ng/mL
concentration at 1 h (Dutch Belted, rabbit, vitreous humor, po, 15 mg/kg, DB rabbit, 15 mg/kg BID oral, Day 15, 1 h, read-out: Mean Vitreous Humor concentration): 15.4 ng/mL
concentration at 6 h (Dutch Belted, rabbit, vitreous humor, po, 15 mg/kg, DB rabbit, 15 mg/kg BID oral, Day 15, 6 h, read-out: Mean Vitreous Humor concentration): 6.45 ng/mL
concentration at 1 h (Dutch Belted, rabbit, vitreous humor, po, 15 mg/kg, DB rabbit, 15 mg/kg single oral dose, Day 1, 1 h, read-out: Mean Vitreous Humor concentration): 7.26 ng/mL
concentration at 6 h (Dutch Belted, rabbit, vitreous humor, po, 15 mg/kg, DB rabbit, 15 mg/kg single oral dose, Day 1, 6 h, read-out: Mean Vitreous Humor concentration): 3.66 ng/mL
AUC(0-t) [3]: 64 ng·h/mL
MRT last [3]: 2.23 h
Cmax (Dutch Belted, rabbit, vitreous humor, po, 15 mg/kg, Vitreous Humor, DB rabbit, 15 mg/kg BID, Day 15, read-out: Cmax): 15.4 ng/mL
AUC(0-t) [4]: 30.9 ng·h/mL
MRT last [4]: 2.48 h
Cmax (Dutch Belted, rabbit, vitreous humor, po, 15 mg/kg, Vitreous Humor, DB rabbit, 15 mg/kg single dose, Day 1, read-out: Cmax): 7.26 ng/mL
Tlast (Iris-Ciliary Body, DB rabbit, 15 mg/kg BID, Day 15): 240 h
Tlast (Iris-Ciliary Body, DB rabbit, 15 mg/kg single dose, Day 1): 240 h
Tlast (Vitreous Humor, DB rabbit, 15 mg/kg BID, Day 15): 6 h
Tlast (Vitreous Humor, DB rabbit, 15 mg/kg single dose, Day 1): 6 h
AUClast [5]: 3990 ng·h/mL
Cmax [5]: 845 ng/mL
MRTlast [5]: 6.51 h
Tlast [5]: 96 h
AUClast [6]: 1570 ng·h/mL
Cmax [6]: 318 ng/mL
MRTlast [6]: 5.58 h
Tlast [6]: 24 h
C-RPE drug concentration at least 10 days following the last oral administration (rabbit, 15 mg/kg BID): 340 ng/mL
Cmax [7]: 576 ng/m
Tlast [7]: 240 h
Cmax [8]: 145 ng/m
MRTlast [8]: 7.83 h
Tlast [8]: 24 h
